Source: ChEMBL document CHEMBL4014294, “Synthesis and in vitro investigation of potential antiproliferative monosaccharide-d-secoestrone bioconjugates” (Bioorg Med Chem Lett, 2017)
Each block holds one compound with its values, some of them ahead of it.

What was measured:
[1] = system: HeLa; experiment: Antiproliferative activity against human HeLa cells after 72 hrs by MTT assay; type: functional, cell-based
[2] = system: A2780; experiment: Antiproliferative activity against human A2780 cells after 72 hrs by MTT assay; type: functional, cell-based; settings: A2780, 72 h
[3] = system: MCF7; experiment: Antiproliferative activity against human MCF7 cells after 72 hrs by MTT assay; type: functional, cell-based; settings: MCF7, 72 h
[4] = system: HeLa; experiment: Growth inhibition of human HeLa cells at 10 uM after 72 hrs by MTT assay relative to control; type: functional; settings: read-out: GI
[5] = system: HeLa; experiment: Growth inhibition of human HeLa cells at 30 uM after 72 hrs by MTT assay relative to control; type: functional; settings: read-out: GI
[6] = system: A2780; experiment: Growth inhibition of human A2780 cells at 10 uM after 72 hrs by MTT assay relative to control; type: functional; settings: A2780, 72 h, read-out: GI
[7] = system: A2780; experiment: Growth inhibition of human A2780 cells at 30 uM after 72 hrs by MTT assay relative to control; type: functional; settings: A2780, 72 h, read-out: GI
[8] = system: MCF7; experiment: Growth inhibition of human MCF7 cells at 10 uM after 72 hrs by MTT assay relative to control; type: functional; settings: MCF7, 72 h, read-out: GI
[9] = system: MCF7; experiment: Growth inhibition of human MCF7 cells at 30 uM after 72 hrs by MTT assay relative to control; type: functional; settings: MCF7, 72 h, read-out: GI
[10] = Growth inhibition of mouse NIH/3T3 cells at 10 uM after 72 hrs by MTT assay relative to control; type: cell-based, NIH3T3; settings: read-out: GI
[11] = Growth inhibition of mouse NIH/3T3 cells at 30 uM after 72 hrs by MTT assay relative to control; type: cell-based, NIH3T3; settings: read-out: GI

IC50 [1]: > 30 µM
IC50 [2]: 5.3 µM
IC50 [3]: 10.7 µM
SMILES: CCC[C@H]1[C@@H]2CCc3cc(OCc4cn([C@@H]5O[C@H](COC(C)=O)[C@@H](OC(C)=O)[C@H](OC(C)=O)[C@H]5OC(C)=O)nn4)ccc3[C@H]2CC[C@]1(C)/C=N/O
inhibition of growth at 10 µM [4]: 20.4%
inhibition of growth at 30 µM [5]: 40%
inhibition of growth at 10 µM [6]: 69.5%
inhibition of growth at 30 µM [7]: 76.7%
inhibition of growth at 10 µM [8]: 46.7%
inhibition of growth at 30 µM [9]: 67.7%
inhibition at 72 h, 10 µM [10]: < 20%
inhibition at 72 h, 30 µM [11]: 28.4%

IC50 [1]: 8.9 µM
IC50 [2]: 6.6 µM
IC50 [3]: 9.4 µM
SMILES: CCC[C@H]1[C@@H]2CCc3cc(OCc4cn([C@H]5O[C@H](COC(C)=O)[C@@H](OC(C)=O)[C@H](OC(C)=O)[C@@H]5OC(C)=O)nn4)ccc3[C@H]2CC[C@]1(C)/C=N/O
inhibition of growth at 10 µM [4]: 52.4%
inhibition of growth at 30 µM [5]: 89.6%
inhibition of growth at 10 µM [6]: 69.5%
inhibition of growth at 30 µM [7]: 86.4%
inhibition of growth at 10 µM [8]: 53.9%
inhibition of growth at 30 µM [9]: 65.9%
inhibition at 72 h, 10 µM [10]: 27.3%
inhibition at 72 h, 30 µM [11]: 34.8%

SMILES: CCC[C@H]1[C@@H]2CCc3cc(OCc4cn(C[C@H]5O[C@H](OC)[C@H](OC(=O)c6ccccc6)[C@@H](OC(=O)c6ccccc6)[C@@H]5OC(=O)c5ccccc5)nn4)ccc3[C@H]2CC[C@]1(C)CO
inhibition of growth at 10 µM [4]: < 20%
inhibition of growth at 30 µM [5]: < 20%
inhibition of growth at 10 µM [6]: < 20%
inhibition of growth at 30 µM [7]: < 20%
inhibition of growth at 10 µM [8]: < 20%
inhibition of growth at 30 µM [9]: < 20%

IC50 [1]: 20.5 µM
IC50 [2]: 8.8 µM
IC50 [3]: 8 µM
SMILES: CCC[C@H]1[C@@H]2CCc3cc(OCc4cn([C@@H]5O[C@H](COC(C)=O)[C@H](OC(C)=O)[C@H](OC(C)=O)[C@H]5OC(C)=O)nn4)ccc3[C@H]2CC[C@]1(C)/C=N/O
inhibition of growth at 10 µM [4]: 31.5%
inhibition of growth at 30 µM [5]: 61.9%
inhibition of growth at 10 µM [6]: 59.3%
inhibition of growth at 30 µM [7]: 85.2%
inhibition of growth at 10 µM [8]: 59.1%
inhibition of growth at 30 µM [9]: 71.5%
inhibition at 72 h, 10 µM [10]: < 20%
inhibition at 72 h, 30 µM [11]: 25.5%

SMILES: CCC[C@H]1[C@@H]2CCc3cc(OCc4cn([C@@H]5O[C@H](CO)[C@@H](O)[C@H](O)[C@H]5O)nn4)ccc3[C@H]2CC[C@]1(C)CO
inhibition of growth at 10 µM [4]: < 20%
inhibition of growth at 30 µM [5]: < 20%
inhibition of growth at 10 µM [6]: < 20%
inhibition of growth at 30 µM [7]: < 20%
inhibition of growth at 10 µM [8]: < 20%
inhibition of growth at 30 µM [9]: < 20%

SMILES: CCC[C@H]1[C@@H]2CCc3cc(OCc4cn(C[C@H]5O[C@H](OC)[C@@H](OC(=O)c6ccccc6)[C@@H](OC(=O)c6ccccc6)[C@@H]5OC(=O)c5ccccc5)nn4)ccc3[C@H]2CC[C@]1(C)CO
inhibition of growth at 10 µM [4]: < 20%
inhibition of growth at 30 µM [5]: < 20%
inhibition of growth at 10 µM [6]: < 20%
inhibition of growth at 30 µM [7]: < 20%
inhibition of growth at 10 µM [8]: < 20%
inhibition of growth at 30 µM [9]: < 20%

SMILES: CCC[C@H]1[C@@H]2CCc3cc(OCc4cn(C[C@H]5O[C@@H](OC)[C@H](OC(=O)c6ccccc6)[C@@H]5OC(=O)c5ccccc5)nn4)ccc3[C@H]2CC[C@]1(C)/C=N/O
inhibition of growth at 10 µM [4]: 24.3%
inhibition of growth at 30 µM [5]: < 20%
inhibition of growth at 10 µM [6]: < 20%
inhibition of growth at 30 µM [7]: < 20%
inhibition of growth at 10 µM [8]: < 20%
inhibition of growth at 30 µM [9]: < 20%

SMILES: CCC[C@H]1[C@@H]2CCc3cc(OCc4cn([C@H]5O[C@H](COC(C)=O)[C@@H](OC(C)=O)[C@H](OC(C)=O)[C@@H]5OC(C)=O)nn4)ccc3[C@H]2CC[C@]1(C)CO
inhibition of growth at 10 µM [4]: 51.9%
inhibition of growth at 30 µM [5]: 41.5%
inhibition of growth at 10 µM [6]: 34.9%
inhibition of growth at 30 µM [7]: 36.5%
inhibition of growth at 10 µM [8]: 26.3%
inhibition of growth at 30 µM [9]: 54.3%

SMILES: CCC[C@H]1[C@@H]2CCc3cc(OCc4cn([C@@H]5O[C@H](COC(C)=O)[C@@H](OC(C)=O)[C@H](OC(C)=O)[C@H]5OC(C)=O)nn4)ccc3[C@H]2CC[C@]1(C)CO
inhibition of growth at 10 µM [4]: 34.5%
inhibition of growth at 30 µM [5]: 23.9%
inhibition of growth at 10 µM [6]: 21%
inhibition of growth at 30 µM [7]: 19.5%
inhibition of growth at 10 µM [8]: 27.4%
inhibition of growth at 30 µM [9]: 45.5%

SMILES: CCC[C@H]1[C@@H]2CCc3cc(OCc4cn([C@@H]5O[C@H](COC(C)=O)[C@H](OC(C)=O)[C@H](OC(C)=O)[C@H]5OC(C)=O)nn4)ccc3[C@H]2CC[C@]1(C)CO
inhibition of growth at 10 µM [4]: 23.9%
inhibition of growth at 30 µM [5]: 31.8%
inhibition of growth at 10 µM [6]: < 20%
inhibition of growth at 30 µM [7]: 32.7%
inhibition of growth at 10 µM [8]: < 20%
inhibition of growth at 30 µM [9]: 61.9%

SMILES: CCC[C@H]1[C@@H]2CCc3cc(OCc4cn(C[C@H]5O[C@H](OC)[C@H](OC(=O)c6ccccc6)[C@@H](OC(=O)c6ccccc6)[C@@H]5OC(=O)c5ccccc5)nn4)ccc3[C@H]2CC[C@]1(C)/C=N/O
inhibition of growth at 10 µM [4]: < 20%
inhibition of growth at 30 µM [5]: < 20%
inhibition of growth at 10 µM [6]: 28.4%
inhibition of growth at 30 µM [7]: 45.7%
inhibition of growth at 10 µM [8]: < 20%
inhibition of growth at 30 µM [9]: < 20%

IC50 [1]: > 30 µM
IC50 [2]: 27.4 µM
IC50 [3]: > 30 µM
SMILES: CCC[C@H]1[C@@H]2CCc3cc(OCc4cn([C@@H]5O[C@H](CO)[C@@H](O)[C@H](O)[C@H]5O)nn4)ccc3[C@H]2CC[C@]1(C)/C=N/O
inhibition of growth at 10 µM [4]: < 20%
inhibition of growth at 30 µM [5]: 31.5%
inhibition of growth at 10 µM [6]: < 20%
inhibition of growth at 30 µM [7]: 57.9%
inhibition of growth at 10 µM [8]: < 20%
inhibition of growth at 30 µM [9]: < 20%

SMILES: CCC[C@H]1[C@@H]2CCc3cc(OCc4cn(C[C@H]5O[C@@H](OC)[C@H](OC(=O)c6ccccc6)[C@@H]5OC(=O)c5ccccc5)nn4)ccc3[C@H]2CC[C@]1(C)CO
inhibition of growth at 10 µM [4]: < 20%
inhibition of growth at 30 µM [5]: < 20%
inhibition of growth at 10 µM [6]: < 20%
inhibition of growth at 30 µM [7]: < 20%
inhibition of growth at 10 µM [8]: < 20%
inhibition of growth at 30 µM [9]: < 20%

SMILES: CCC[C@H]1[C@@H]2CCc3cc(OCc4cn(C[C@H]5O[C@H](OC)[C@@H](OC(=O)c6ccccc6)[C@@H](OC(=O)c6ccccc6)[C@@H]5OC(=O)c5ccccc5)nn4)ccc3[C@H]2CC[C@]1(C)/C=N/O
inhibition of growth at 10 µM [4]: < 20%
inhibition of growth at 30 µM [5]: < 20%
inhibition of growth at 10 µM [6]: < 20%
inhibition of growth at 30 µM [7]: < 20%
inhibition of growth at 10 µM [8]: < 20%
inhibition of growth at 30 µM [9]: < 20%
